From publication doi:10.1101/324947v3 (biorxiv, 2020)

Legend:
[1] = target: T1, recombinant IDO1 (holo-IDO1; apo-IDO1) (Homo sapiens, UniProt P14902); assay: NFK formation from D-TRP, Morrison tight binding fit; format: biochemical
[2] = target: T1, recombinant IDO1 (holo-IDO1; apo-IDO1); assay: intrinsic TRP fluorescence quenching, equilibrium titration; format: binding
[3] = target: T1, recombinant IDO1 (holo-IDO1; apo-IDO1); assay: fluorescence polarization competition against GSK1051; format: binding

T1 sequence (P14902 whole entry): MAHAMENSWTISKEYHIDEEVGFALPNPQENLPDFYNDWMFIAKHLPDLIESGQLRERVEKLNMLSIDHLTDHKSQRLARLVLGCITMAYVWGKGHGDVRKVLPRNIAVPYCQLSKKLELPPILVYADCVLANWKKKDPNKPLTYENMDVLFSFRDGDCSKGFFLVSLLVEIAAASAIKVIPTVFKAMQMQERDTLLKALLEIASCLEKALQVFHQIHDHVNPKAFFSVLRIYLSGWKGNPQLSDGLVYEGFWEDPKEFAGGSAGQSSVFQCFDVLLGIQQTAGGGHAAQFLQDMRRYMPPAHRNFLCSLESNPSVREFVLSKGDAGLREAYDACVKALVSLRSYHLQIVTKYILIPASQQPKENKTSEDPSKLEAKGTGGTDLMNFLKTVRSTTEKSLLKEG

Structure (SMILES)	Ki [1]	Kd [2]	IC50 [3]
CC(C)CN(CC(C)C)c1ccc([C@H](C)CC(=O)O)cc1Nc1nc(C(F)(F)F)ns1 [GSK5628]	10 nM	2.1 nM	–
C=CC1=C(C)C2=Cc3c(C=C)c(C)c4[n]3[Fe+][n]3c(c(C)c(CCC(=O)O)c3=CC3=NC(=C4)C(C)=C3CCC(=O)O)=CC1=N2 [heme]	–	–	4.4 nM
